These results are taken from US4169197A, “6-Deoxyneamines aminoglycoside compounds” (The Upjohn Company, priority 1978, dated 1979).

What all share (assay): standard microplate test in BHI Agar
Holding throughout (format): cell-based

Experiment [1] has as its system E. coli UC 311. The following applies: Escherichia coli, UC311, 20 h, read-out: Minimal Inhibitory Concentration. Put shortly:
(§1)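 A standard microplate assay in BHI agar used compound at 1 mg./ml. and dilutions, with end points read at 20 h (37°).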

Experiment [2] deals with P. morganii UC 3186. The following applies: Morganella morganii, UC3186, 20 h. Put shortly:
as §1

The subject of experiment [3] is S. pneumoniae I UC 41. The settings on record: Streptococcus pneumoniae, UC41, 20 h. Put shortly: as §1
[4] abbreviates: read-out: Minimal Inhibitory Concentration.
Where [5] appears, read: read-out: Minimum Inhibitory Concentration.

In brackets after ≈: the same amount, converted by molar mass. Like-named read-outs stand apart in the source and are kept apart here.

For the compound `NC[C@H]1O[C@H](O[C@H]2[C@H](O)[C@@H](O)[C@H](N)C[C@@H]2N)[C@H](N)[C@@H](O)[C@@H]1O` [Neamine], the MIC in experiment [1] was 125 µg/mL (≈ 388 µM); in experiment [2] (setting [4]) it was 31.2 µg/mL (≈ 96.8 µM); in experiment [2] (setting [5]) it was 62.5 µg/mL (≈ 194 µM); in experiment [3] (setting [4]), 62.5 µg/mL (≈ 194 µM); in experiment [3] (setting [5]) it was 62.5 µg/mL (≈ 194 µM).
